Data published in PubChem BioAssay AID1919005 (Molecular Pharmacology Branch, DTP, NCI, 2023).

System: 855422-203-R-J1-PDC complex spheroid growth
Test: Anticancer human tumor 855422-203-R-J1-PDC patient-derived bladder carcinoma cell line growth inhibition [AhR]
Conditions: for IC50: curve of first compound; for viability, T/C: stronger effect = lower value
In short: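 Agents were dosed in half-log steps down from roughly clinical Cmax, or from 10 microM where Cmax was unknown, alone and with AhR antagonists. Read-out: percent test/control growth of tumor spheroids containing HUVEC and MSC stromal cells.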

[1] = second compound 0.1 µM, first compound 0.0316 µM
[2] = second compound 0.1 µM, first compound 0.1 µM
[3] = second compound 0.316 µM, first compound 0.0316 µM
[4] = second compound 0.316 µM, first compound 0.1 µM
[5] = second compound 1 µM, first compound 0.0316 µM
[6] = second compound 1 µM, first compound 0.1 µM
[7] = second compound 3.16 µM, first compound 0.0316 µM
[8] = second compound 3.16 µM, first compound 0.1 µM
[9] = second compound 10 µM, first compound 0.0316 µM
[10] = second compound 10 µM, first compound 0.1 µM
[11] = second compound 0.1 µM, first compound 0.316 µM
[12] = second compound 0.1 µM, first compound 1 µM
[13] = second compound 0.1 µM, first compound 3.16 µM
[14] = second compound 0.1 µM, first compound 10 µM
[15] = second compound 0.316 µM, first compound 0.316 µM
[16] = second compound 0.316 µM, first compound 1 µM
[17] = second compound 0.316 µM, first compound 3.16 µM
[18] = second compound 0.316 µM, first compound 10 µM
[19] = second compound 1 µM, first compound 0.316 µM
[20] = second compound 1 µM, first compound 1 µM
[21] = second compound 1 µM, first compound 3.16 µM
[22] = second compound 1 µM, first compound 10 µM
[23] = second compound 3.16 µM, first compound 0.316 µM
[24] = second compound 3.16 µM, first compound 1 µM
[25] = second compound 3.16 µM, first compound 3.16 µM
[26] = second compound 3.16 µM, first compound 10 µM
[27] = second compound 10 µM, first compound 0.316 µM
[28] = second compound 10 µM, first compound 1 µM
[29] = second compound 10 µM, first compound 3.16 µM
[30] = second compound 10 µM, first compound 10 µM
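Note: spheroids exposed to agents for seven days before readout.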
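Throughout, for viability, T/C: percent of DMSO vehicle control luminescence viability.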

Row | IC50 (second compound 0.1 µM) [nM] | IC50 (second compound 0.316 µM) [nM] | IC50 (second compound 1 µM) [nM] | IC50 (second compound 3.16 µM) [nM] | IC50 (second compound 10 µM) [nM] | Compound | viability, T/C [1] [%] | viability, T/C [2] [%] | viability, T/C [3] [%] | viability, T/C [4] [%] | viability, T/C [5] [%] | viability, T/C [6] [%] | viability, T/C [7] [%] | viability, T/C [8] [%] | viability, T/C [9] [%] | viability, T/C [10] [%] | viability, T/C [11] [%] | viability, T/C [12] [%] | viability, T/C [13] [%] | viability, T/C [14] [%] | viability, T/C [15] [%] | other results
1 | > 100 | > 100 | > 100 | > 100 | > 100 | Cn1ncnc1C1c2n[nH]c(=O)c3cc(F)cc(c23)NC1c1ccc(F)cc1 (stereo not given) + Cc1ccccc1N=Nc1ccc(NC(=O)c2ccnn2C)c(C)c1 | 93.8 | 100 | 92.6 | 90 | 98.2 | 96.3 | 87.4 | 91.8 | 76.2 | 77 | – | – | – | – | – | viability, T/C (second compound 0.1 µM, first compound 0.000316 µM): 102%; viability, T/C (second compound 0.1 µM, first compound 0.001 µM): 96%; viability, T/C (second compound 0.1 µM, first compound 0.00316 µM): 102%; viability, T/C (second compound 0.1 µM, first compound 0.01 µM): 100%; viability, T/C (second compound 0.316 µM, first compound 0.000316 µM): 106%; viability, T/C (second compound 0.316 µM, first compound 0.001 µM): 96.4%; viability, T/C (second compound 0.316 µM, first compound 0.00316 µM): 95.7%; viability, T/C (second compound 0.316 µM, first compound 0.01 µM): 96.1%; viability, T/C (second compound 1 µM, first compound 0.000316 µM): 104%; viability, T/C (second compound 1 µM, first compound 0.001 µM): 105%; viability, T/C (second compound 1 µM, first compound 0.00316 µM): 97.7%; viability, T/C (second compound 1 µM, first compound 0.01 µM): 103%; viability, T/C (second compound 3.16 µM, first compound 0.000316 µM): 88.4%; viability, T/C (second compound 3.16 µM, first compound 0.001 µM): 97.3%; viability, T/C (second compound 3.16 µM, first compound 0.00316 µM): 93.9%; viability, T/C (second compound 3.16 µM, first compound 0.01 µM): 90.8%; viability, T/C (second compound 10 µM, first compound 0.000316 µM): 80.1%; viability, T/C (second compound 10 µM, first compound 0.001 µM): 78.5%; viability, T/C (second compound 10 µM, first compound 0.00316 µM): 82.5%; viability, T/C (second compound 10 µM, first compound 0.01 µM): 81.6%
2 | 3020 | 2530 | 1970 | 1030 | 484 | NS(=O)(=O)OCC1CC(n2ccc3c(NC4CCc5ccccc54)ncnc32)CC1O (stereo not given) + Cc1ccccc1N=Nc1ccc(NC(=O)c2ccnn2C)c(C)c1 | 104 | 110 | 102 | 113 | 101 | 115 | 105 | 110 | 73.8 | 80.2 | 124 | 98.5 | 48.5 | 16.3 | 120 | viability, T/C [16]: 90.3%; viability, T/C [17]: 40.9%; viability, T/C [18]: 16.5%; viability, T/C [19]: 109%; viability, T/C [20]: 77.7%; viability, T/C [21]: 31.1%; viability, T/C [22]: 15.3%; viability, T/C [23]: 78.8%; viability, T/C [24]: 54.2%; viability, T/C [25]: 20.7%; viability, T/C [26]: 12%; viability, T/C [27]: 56.5%; viability, T/C [28]: 35.2%; viability, T/C [29]: 13.6%; viability, T/C [30]: 12.1%
3 | 3990 | 4230 | 4260 | 3750 | 3250 | O=C(C=Cc1cccc(S(=O)(=O)Nc2ccccc2)c1)NO + Cc1ccccc1N=Nc1ccc(NC(=O)c2ccnn2C)c(C)c1 | 104 | 107 | 105 | 114 | 97.9 | 109 | 96.8 | 95.6 | 87.2 | 95.4 | 109 | 111 | 61.7 | 3.76 | 111 | viability, T/C [16]: 106%; viability, T/C [17]: 65.2%; viability, T/C [18]: 5.12%; viability, T/C [19]: 111%; viability, T/C [20]: 105%; viability, T/C [21]: 66.2%; viability, T/C [22]: 3.95%; viability, T/C [23]: 104%; viability, T/C [24]: 96.5%; viability, T/C [25]: 58.1%; viability, T/C [26]: 3.54%; viability, T/C [27]: 88.7%; viability, T/C [28]: 79.6%; viability, T/C [29]: 51.3%; viability, T/C [30]: 3.79%
